Measured values published in PMC9530166, “Allosteric regulation of glycogen breakdown by the second messenger cyclic di-GMP” (Nature Communications, 2022).

Columns and labels:
GlgX = GlgX (Streptomyces venezuelae, UniProt F2RAW5); test: Fluorescence polarization (FP) binding, wild-type GlgX; conditions: summary value of FP (Fig. 5c) and MST (Supplementary Fig. 8); read-out: affinity of GlgX for c-di-GMP
Source text: Fig. 5 Structure of the S. venezuelae GlgX-c-di-GMP complex. a Ribbon diagram of the S. venezuelae GlgX-c-di-GMP complex with one GlgX subunit colored cyan and the other salmon. Shown as sticks are the c-di-GMP molecules bound at each end of the antiparallel dimer. […] There was clear density for each c-di-GMP molecule. b Close up of the GlgX-c-di-GMP binding interaction. Key residues mediating contacts to the c-di-GMP are shown as sticks and labeled. Hydrogen bonds from GlgX residues that specify binding to the guanine are indicated by yellow dashed lines. c Fluorescence polarization (FP) binding isotherm showing interaction of GlgX, GlgXE47A-R49A and GlgXR438A-R579A for F-c-di-GMP in red, green and blue respectively. Also shown is the binding isotherm for GlgX binding to F-c-di-AMP in black. […] The y-axis and x-axis are millipolarization (mP) units and GlgX concentration (μM), respectively. Shown are representative binding curves for each. The experiments were performed in technical triplicates and the error between measurements reported. Error bars represent SD of the measurements. Source data are provided in the Source data file.
Thus, we used this F-tagged c-di-GMP in fluorescence polarization (FP) studies to quantify the interaction between GlgX and c-di-GMP. […] To ensure that the presence of the fluorescent tag was not impacting the GlgX interaction with c-di-GMP we used microscale thermophoresis (MST) to quantify c-di-GMP binding to GlgX. […] But to further probe the structural model we created GlgXE47A-R49A and GlgXR438A-R579A mutants and performed FP studies with these proteins.
To measure c-di-GMP binding to GlgX and GlgX mutants, 2′-O-(6-[Fluoresceinyl]aminohexylcarbamoyl)-cyclic diguanosine monophosphate (2′-Fluo-AHC-c-di-GMP) (BioLog), was used as a fluoresceinated reporter ligand. This molecule is conjugated via a nine atom spacer to one of the c-di-GMP 2′ hydroxyl groups. […] 2′-O-(6-[Fluoresceinyl]aminohexylcarbamoyl)-cyclic diadenosine monophosphate (2′-Fluo-AHC-c-di-AMP) (BioLog) was also used in binding studies to assess specificity of GlgX for c-di-GMP. […]

His6-GlgX = test: Bicinchoninic acid (BCA) reducing-end enzyme assay, wild-type GlgX; assay type: biochemical, Streptomyces venezuelae; conditions: for stimulation of GlgX hydrolysis of substrate: 1 µM His6-GlgX, 50 µM c-di-GMP
Source text: Glycogen debranching enzymes hydrolyze α-(1→6)-linked glucan branches, producing malto-oligosaccharides with reducing ends[7]. The bicinchoninic acid (BCA) assay allows accurate photometric determination of reducing ends from oligosaccharides and is based on the reduction of Cu^2+ to Cu^+. A purple copper bicinchoninate complex with an absorbance maximum at 562 nm forms from Cu^+ and bicinchoninate. […] In addition, we tested the effect of c-di-GMP on GlgX activity by using polysaccharides with different degrees of α-(1→6)-linked glucans as a substrate (Fig. 2b). While glycogen contains α-(1→6)-linked glucan branches every 8–10 residue, amylose is essentially an unbranched chain of α−1,4-linked glucose subunits. Amylopectin is composed of α−1,4-linked glucose units with α-(1→6)-linkages at intervals of ∼20 units. Pullulan is a polysaccharide polymer consisting of maltotriose units in which the three glucose units are connected by α−1,4-glycosidic bonds. Consecutive maltotriose units are linked by a α−1,6-glycosidic bond.
Fig. 2 c-di-GMP stimulates glycogen breakdown activity of GlgX in vitro. a Bicinchoninic acid (BCA) in vitro enzyme assay. The purple copper bicinchoninate complex indicating GlgX-mediated generation of reducing ends in glycogen was quantified by photometric measurements at 562 nm. A562 values were converted into reducing ends [µM glucose equivalents] based on D-glucose as a standard. Reactions contained 0.05% (w/v) glycogen from rabbit, 1 µM GlgX and increasing concentrations of c-di-GMP (0–100 µM). Source data are provided as a Source data file. b BCA assay containing 0.05% of either glycogen from rabbit, pullulan, amylopectin from maize or amylose from potato as substrates. Where appropriate, 1 µM GlgX or 50 µM c-di-GMP were added to the reaction samples. Source data are provided as a Source data file. c BCA assay as in a with or without c-di-GMP (50 µM), 0.05% glycogen from rabbit (S) and 1 µM Vnz25270, GlgX, the active site mutants GlgXD342A, GlgXE378A, GlgXD342A+E378A, or the c-di-GMP-binding mutant variant GlgXDETR49-52 as indicated. The experiment was performed three times, each time with two technical replicates. The data points represent the mean ± SD of six data points. Source data are provided as a Source data file.
Hydrolysis of carbohydrates was assessed in vitro by measuring the accumulation of reducing sugar ends using the BCA assay[42] and D-glucose as a standard for calibration (Supplementary Fig. 11). Purified enzyme was diluted to […] in 20 mM (N-2-hydroxyethylpiperazine-N′−2-ethanesulfonic acid) HEPES (pH 7.5; ionic strength, 160 mM [adjusted with NaCl]) containing 10 mM MgCl2 and […] c-di-GMP (BioLog). Samples were incubated at rt for 5 min and reactions were initiated by the addition of 0.05% of the relevant carbohydrate provided by Sigma-Aldrich: glycogen from rabbit (cat. no G8876); amylose from potato (cat. no A0512); amylopectin from maize (cat. no. 10120); and pullulan (P4516). The mixture was incubated at 37 °C in a heat block for 1 h. Next, an equal volume of BCA reagent solution (250 mM Na2CO3; 144 mM NaHCO3; 2.5 mM sodium bicinconinic acid (Sigma); 6 mM L-serine (Roth); 2.5 mM CuSO4 x 5 H2O (Roth)) was added, reactions were vortexed vigorously and incubated at 80 °C in a heat block for 30 min. Assay mixtures were then cooled to rt. 125 μl sample aliquots were transferred in duplicates to a 96 well plate and the absorbance at 562 nm was measured using a plate reader.

BldD = molecular target: BldD; parameters: method as in PMID 25171413, PMID 31810759; conditions: cited from earlier work

Chain of GlgX (F2RAW5 entry or part of it): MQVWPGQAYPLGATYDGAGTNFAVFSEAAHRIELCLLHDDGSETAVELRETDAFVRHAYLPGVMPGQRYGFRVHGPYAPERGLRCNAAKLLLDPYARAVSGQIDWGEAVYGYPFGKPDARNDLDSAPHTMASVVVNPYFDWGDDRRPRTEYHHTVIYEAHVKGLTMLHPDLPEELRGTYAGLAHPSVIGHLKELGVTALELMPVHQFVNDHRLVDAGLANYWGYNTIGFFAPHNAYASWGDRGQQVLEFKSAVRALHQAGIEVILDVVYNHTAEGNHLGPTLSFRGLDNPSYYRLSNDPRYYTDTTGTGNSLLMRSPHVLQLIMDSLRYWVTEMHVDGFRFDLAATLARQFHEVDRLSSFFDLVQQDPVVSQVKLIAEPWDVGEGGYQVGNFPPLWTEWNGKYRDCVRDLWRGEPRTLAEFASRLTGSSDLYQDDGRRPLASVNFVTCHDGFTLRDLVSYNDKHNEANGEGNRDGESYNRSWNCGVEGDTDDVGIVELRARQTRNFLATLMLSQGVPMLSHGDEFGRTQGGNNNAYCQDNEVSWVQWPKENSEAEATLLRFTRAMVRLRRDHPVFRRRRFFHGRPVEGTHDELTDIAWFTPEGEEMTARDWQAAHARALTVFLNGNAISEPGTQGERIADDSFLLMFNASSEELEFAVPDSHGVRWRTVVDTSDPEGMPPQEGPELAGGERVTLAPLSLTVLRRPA

Nc1nc2c(ncn2[C@@H]2O[C@@H]3CO[P@](=O)(O)O[C@H]4[C@@H](O)[C@H](n5cnc6c(=O)[nH]c(N)nc65)O[C@@H]4CO[P@](=O)(O)O[C@H]3[C@H]2O)c(=O)[nH]1 [c-di-GMP, bis-(3′−5′)-cyclic diguanosine monophosphate]
Kd (GlgX): ~8 µM
c-di-GMP concentration with saturating enzymatic activity (His6-GlgX; 0.05% glycogen from rabbit, 1 µM GlgX, c-di-GMP 3.125–100 µM): 50 µM
stimulation of GlgX hydrolysis of substrate (His6-GlgX; substrate 0.05% amylopectin): stimulates
stimulation of GlgX hydrolysis of substrate (His6-GlgX; substrate 0.05% amylose): no stimulation
stimulation of GlgX hydrolysis of substrate (His6-GlgX; substrate 0.05% glycogen): stimulates
stimulation of GlgX hydrolysis of substrate (His6-GlgX; substrate 0.05% pullulan): stimulates
Kd (BldD): 2.5 ± 0.6 µM
